Where two headings read alike, the source gives them in different places.
Experiments:
TYK2 JH2 = molecular target: T1, TYK2 JH2 (Homo sapiens, UniProt P29597); assay: TYK2 JH2 binding assay (KINOMEscan KdELECT competitive binding); details: TYK2 JH2 domain
T1 construct: purchased DiscoverX (KINOMEscan KdELECT service); host or cells: E. coli BL21-derived (T7 phage display) or HEK-293
Method in brief: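 Competition binding, KdELECT format. Kinase (phage-tagged, E. coli BL21-derived host; or HEK-293, DNA-tagged) + ligand-coated streptavidin beads + cpd, 1 h RT, final DMSO 0.9%. Wash, elute 30 min with 0.5 μM non-biotinylated ligand; qPCR readout. Kd: 11-pt, 3-fold series.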

[1] = system: JAK1/TYK2 pSTAT5 (Tyr694/699) in THP-1 cell line; assay: IFNa-stimulated JAK1/TYK2 pSTAT5 (Tyr694/699) inhibition cellular assay, AlphaLISA; type: cell-based; details: Homo sapiens, THP-1 cells, AlphaLISA (Assay B)
Method in brief: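 Compound dilutions were dispensed first, and HBSS-suspended THP-1 cells were added on top (final top concentration 10000 nM, 6-fold series). After 1 h at 37 °C, IFNa (100 ng/mL as added) was applied for 30 min. Cells were then lysed and pSTAT5 was quantified by AlphaLISA.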

[2] = KINOMEscan KdELECT (Assay A), read-out: Biochemical TYK2_DiscoverX_JH2_BND_Kd
[3] = IFNa-stimulated, read-out: Cellular_THP1_IFNa-pSTATS_TYK2
[4] = IFNa-stimulated pSTAT5 (Tyr694/699), read-out: Cellular_THP1_IFNa-pSTATS_TYK2
[5] = KINOMEscan KdELECT (Assay A), read-out: Biochemical TYK2_JH2_Kd
[6] = IFNa-stimulated, read-out: Cellular THP1_IFNa-pSTATS_IC50
[7] = DiscoverX KINOMEscan KdELECT (Assay A), read-out: Biochemical TYK2_DiscoverX_JH2_BND_Kd

T1 sequence (P29597 589-875 limits assumed): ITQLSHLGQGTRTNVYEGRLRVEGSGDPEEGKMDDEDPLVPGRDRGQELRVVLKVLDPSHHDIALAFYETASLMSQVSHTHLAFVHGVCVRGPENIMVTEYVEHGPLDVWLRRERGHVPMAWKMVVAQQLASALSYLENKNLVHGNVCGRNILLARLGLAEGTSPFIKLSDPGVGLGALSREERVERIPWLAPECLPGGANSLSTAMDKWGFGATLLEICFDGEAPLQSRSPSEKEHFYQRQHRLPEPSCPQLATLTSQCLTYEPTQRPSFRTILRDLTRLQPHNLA

| Compound | Kd (TYK2 JH2; [2]) | IC50 [1, 3] | other results |
| --- | --- | --- | --- |
| CNc1ncc(-c2nc3cc(-c4cnn(C)n4)ccc3o2)c2cc(NC(=O)C3CC3)ncc12 [Example 940, N-(5-(5-(2-methyl-2H-1,2,3-triazol-4-yl)benzo[d]oxazol-2-yl)-8-(methylamino)-2,7-naphthyridin-3-yl)cyclopropanecarboxamide] | ≤ 100 nM | ≤ 500 nM | – |
| CNc1ncc(-c2nc3cc(N4CCO[C@H](COC)C4)ccc3o2)c2cc(NC(=O)C3CC3)ncc12 (single isomer, unassigned) [Example 919] | ≤ 100 nM | ≤ 500 nM | – |
| CNc1ncc(-c2nc3ccc(N4CCOC(C(C)O)C4)cn3n2)c2cc(NC(=O)C3CC3)ncc12 (stereo not drawn) [Example 1043] | ≤ 100 nM | – | IC50 [1, 4]: ≤ 500 nM |
| CNc1ncc(-c2nc(Cc3ncn(C)n3)co2)c2cc(NC(=O)C3CC3)ncc12 [Example 827, N-(5-(4-((1-methyl-1H-1,2,4-triazol-3-yl)methyl)oxazol-2-yl)-8-(methylamino)-2,7-naphthyridin-3-yl)cyclopropanecarboxamide] | ≤ 100 nM | > 500 nM | – |
| CNc1ncc(-c2[nH]ncc2C)c2cc(NC(=O)C3CC3)ncc12 [Example 40, N-(5-(4-methyl-1H-pyrazol-5-yl)-8-(methylamino)-2,7-naphthyridin-3-yl)cyclopropanecarboxamide] | – | – | Kd (TYK2 JH2; [5]): ≤ 100 nM; IC50 [1, 6]: > 500 nM |
| CNc1ncc(-c2nc3c(o2)CCC(OC)C3)c2cc(NC(=O)C3CC3)ncc12 (stereo not drawn) [Example 874, N-(5-(5-methoxy-4,5,6,7-tetrahydrobenzo[d]oxazol-2-yl)-8-(methylamino)-2,7-naphthyridin-3-yl)cyclopropanecarboxamide] | ≤ 100 nM | ≤ 500 nM | – |
| CNc1ncc(-c2nc3cc(OC)ccc3o2)c2cc(NC(=O)[C@H]3C[C@@H]3F)ncc12 [Example 389, (1R,2S)-2-fluoro-N-(5-(5-methoxybenzo[d]oxazol-2-yl)-8-(methylamino)-2,7-naphthyridin-3-yl)cyclopropane-1-carboxamide] | – | ≤ 500 nM | Kd (TYK2 JH2; [7]): ≤ 100 nM |
| [2H]C([2H])([2H])Nc1ncc(-c2nc3ccc(N4CCOCC4)cn3n2)c2cc(NC(=O)C3(F)CC3)ncc12 [Example 571, 1-fluoro-N-(8-((methyl-d3)amino)-5-(6-morpholino-[1,2,4]triazolo[1,5-a]pyridin-2-yl)-2,7-naphthyridin-3-yl)cyclopropane-1-carboxamide] | – | ≤ 500 nM | Kd (TYK2 JH2; [7]): ≤ 100 nM |
| CNc1ncc(-c2nc3cc(N4CC[C@H]4C#N)ccc3o2)c2cc(NC(=O)C3CC3)ncc12 [Example 320, (S)—N-(5-(5-(2-cyanoazetidin-1-yl)benzo[d]oxazol-2-yl)-8-(methylamino)-2,7-naphthyridin-3-yl)cyclopropanecarboxamide] | – | ≤ 500 nM | Kd (TYK2 JH2; [7]): ≤ 100 nM |
| CNc1ncc(-c2nc3cc(OC)ccc3o2)c2cc(NC(=O)[C@H]3C[C@H]3CO)ncc12 (single isomer, unassigned) [Example 467] | – | ≤ 500 nM | Kd (TYK2 JH2; [7]): ≤ 100 nM |
| CNc1ncc(-c2nc3cc(C(=O)O)ccc3o2)c2cc(NC(=O)C3CC3)ncc12 [Example 214, 2-(6-(cyclopropanecarboxamido)-1-(methylamino)-2,7-naphthyridin-4-yl)benzo[d]oxazole-5-carboxylic acid] | – | > 500 nM | Kd (TYK2 JH2; [7]): ≤ 100 nM |
| CCOCCc1cccc2nc(-c3cnc(NC)c4cnc(NC(=O)C5CC5)cc34)oc12 [Example 269, N-(5-(7-(2-ethoxyethyl)benzo[d]oxazol-2-yl)-8-(methylamino)-2,7-naphthyridin-3-yl)cyclopropanecarboxamide] | – | ≤ 500 nM | Kd (TYK2 JH2; [7]): ≤ 100 nM |
| CNc1ncc(-c2ccn(CC(F)(F)F)n2)c2cc(NC(=O)C3CC3)ncc12 [Example 64, N-(8-(methylamino)-5-(1-(2,2,2-trifluoroethyl)-1H-pyrazol-3-yl)-2,7-naphthyridin-3-yl)cyclopropanecarboxamide] | – | – | Kd (TYK2 JH2; [5]): ≤ 100 nM; IC50 [1, 6]: ≤ 500 nM |
| CNC(=O)c1ccc2oc(-c3cnc(NC)c4cnc(NC(=O)C5CC5)cc34)nc2c1 [Example 238, 2-(6-(cyclopropanecarboxamido)-1-(methylamino)-2,7-naphthyridin-4-yl)-N-methylbenzo[d]oxazole-5-carboxamide] | – | ≤ 500 nM | Kd (TYK2 JH2; [7]): ≤ 100 nM |
| CNc1ncc(-c2nc3cc(N4CC[C@@H](F)C4)ccc3o2)c2cc(NC(=O)C3CC3)ncc12 (single isomer, unassigned) [Example 944] | ≤ 100 nM | ≤ 500 nM | – |
| CNc1ncc(-c2ccc(N3CCC3CC#N)cc2)c2cc(NC(=O)C3CC3)ncc12 (stereo not drawn) [Example 860, N-(5-(4-(2-(cyanomethyl)azetidin-1-yl)phenyl)-8-(methylamino)-2,7-naphthyridin-3-yl)cyclopropanecarboxamide] | ≤ 100 nM | > 500 nM | – |
| O=C(Nc1cc2c(-c3ccccc3)cnc(Cl)c2cn1)C1CC1 [Example 95, N-(8-chloro-5-phenyl-2,7-naphthyridin-3-yl)cyclopropanecarboxamide] | – | – | Kd (TYK2 JH2; [5]): 100 to 1000 nM; IC50 [1, 6]: > 500 nM |
| CNc1ncc(-c2cnc(C)o2)c2cc(NC(=O)C3CC3)ncc12 [Example 130, N-(8-(methylamino)-5-(2-methyloxazol-5-yl)-2,7-naphthyridin-3-yl)cyclopropanecarboxamide] | – | – | Kd (TYK2 JH2; [5]): ≤ 100 nM; IC50 [1, 6]: > 500 nM |
| CNc1ncc(C#Cc2ccc(OC3CN(C(C)=O)C3)cc2)c2cc(NC(=O)C3(F)CC3)ncc12 [Example 760, N-(5-((4-((1-acetylazetidin-3-yl)oxy)phenyl)ethynyl)-8-(methylamino)-2,7-naphthyridin-3-yl)-1-fluorocyclopropane-1-carboxamide] | ≤ 100 nM | ≤ 500 nM | – |
| CNc1ncc(-c2nc3ccccn3n2)c2cc(NC(=O)C3CC3)ncc12 [Example 155, N-(5-([1,2,4]triazolo[1,5-a]pyridin-2-yl)-8-(methylamino)-2,7-naphthyridin-3-yl)cyclopropanecarboxamide] | – | – | Kd (TYK2 JH2; [5]): ≤ 100 nM; IC50 [1, 6]: ≤ 500 nM |

Continued, in another order:

| Kd (TYK2 JH2; [2]) | IC50 [1, 3] | Compound | other results |
| --- | --- | --- | --- |
| ≤ 100 nM | ≤ 500 nM | CNc1ncc(C#Cc2ccc(OCF)cn2)c2cc(NC(=O)C3CC3)ncc12 [Example 732, N-(5-((5-(fluoromethoxy)pyridin-2-yl)ethynyl)-8-(methylamino)-2,7-naphthyridin-3-yl)cyclopropanecarboxamide] | – |
| ≤ 100 nM | ≤ 500 nM | CNc1ncc(C#Cc2ccc(CN3CCOCC3)cc2)c2cc(NC(=O)C3CC3)ncc12 [Example 820, N-(8-(methylamino)-5-((4-(morpholinomethyl)phenyl)ethynyl)-2,7-naphthyridin-3-yl)cyclopropanecarboxamide] | – |
| ≤ 100 nM | ≤ 500 nM | CNc1ncc(C#Cc2ccc3oc(C)cc3c2)c2cc(NC(=O)C3CC3)ncc12 [Example 813, N-(8-(methylamino)-5-((2-methylbenzofuran-5-yl)ethynyl)-2,7-naphthyridin-3-yl)cyclopropanecarboxamide] | – |
| ≤ 100 nM | – | CNc1ncc(C#Cc2ccc3nc(C(F)F)sc3c2)c2cc(NC(=O)C3CC3)ncc12 [Example 996, N-(5-((2-(difluoromethyl)benzo[d]thiazol-6-yl)ethynyl)-8-(methylamino)-2,7-naphthyridin-3-yl)cyclopropanecarboxamide] | IC50 [1, 4]: ≤ 500 nM |
| ≤ 100 nM | ≤ 500 nM | CNc1ncc(C#Cc2ccc(OCC3CN(C)C3)cc2)c2cc(NC(=O)C3CC3)ncc12 [Example 712, N-(8-(methylamino)-5-((4-((1-methylazetidin-3-yl)methoxy)phenyl)ethynyl)-2,7-naphthyridin-3-yl)cyclopropanecarboxamide] | – |
| ≤ 100 nM | ≤ 500 nM | [2H]C([2H])([2H])n1nnc2ccc(C#Cc3cnc(NC)c4cnc(NC(=O)C5CC5)cc34)cc21 [Example 817, N-(5-((1-(methyl-d3)-1H-benzo[d][1,2,3]triazol-6-yl)ethynyl)-8-(methylamino)-2,7-naphthyridin-3-yl)cyclopropanecarboxamide] | – |
| ≤ 100 nM | ≤ 500 nM | CNc1ncc(C#Cc2ccc(OC)cn2)c2cc(NC(=O)C3CC3)ncc12 [Example 613] | – |
| ≤ 100 nM | ≤ 500 nM | CNc1ncc(-c2cc3ccc(OC)cn3n2)c2cc(NC(=O)C3CC3)ncc12 [Example 765, N-(5-(6-methoxypyrazolo[1,5-a]pyridin-2-yl)-8-(methylamino)-2,7-naphthyridin-3-yl)cyclopropanecarboxamide] | – |
| ≤ 100 nM | ≤ 500 nM | CNc1ncc(C#Cc2ccc3ncccc3c2)c2cc(NC(=O)C3CC3)ncc12 [Example 620, N-(8-(methylamino)-5-(quinolin-6-ylethynyl)-2,7-naphthyridin-3-yl)cyclopropanecarboxamide] | – |
| ≤ 100 nM | – | CNc1ncc(C#Cc2ccc3[nH]ccc3c2)c2cc(NC(=O)C3CC3)ncc12 [Example 1015, N-(5-((1H-indol-5-yl)ethynyl)-8-(methylamino)-2,7-naphthyridin-3-yl)cyclopropanecarboxamide] | IC50 [1, 4]: ≤ 500 nM |
